Assay results from ChEMBL document CHEMBL1649575, “Antimicrobial susceptibility and mutations involved in clarithromycin resistance in Helicobacter pylori isolates from patients in the western central region of Colombia” (2009).
Active and inactive are the calls of the source. No cut-off for these calls is given here.

Legend:
Helicobacter pylori [1] = experiment: Antimicrobial activity against Helicobacter pylori clinical isolate expressing 23S rRNA A2143G mutant by Etest; assay type: functional, organism-based
Helicobacter pylori [2] = experiment: Antimicrobial activity against Helicobacter pylori clinical isolate expressing 23S rRNA A2142G mutant by Etest; assay type: functional
Helicobacter pylori [3] = experiment: Antimicrobial activity against Helicobacter pylori clinical isolate by Etest; assay type: functional, organism-based

SMILES | Activity (Helicobacter pylori [1]) | MIC (Helicobacter pylori [2]) | Activity (Helicobacter pylori [3])
CC[C@H]1OC(=O)[C@H](C)[C@@H](O[C@H]2C[C@@](C)(OC)[C@@H](O)[C@H](C)O2)[C@H](C)[C@@H](O[C@@H]2O[C@H](C)C[C@H](N(C)C)[C@H]2O)[C@](C)(OC)C[C@@H](C)C(=O)[C@H](C)[C@@H](O)[C@]1(C)O [CLARITHROMYCIN] | inactive | > 256 µg/mL | 
CN(C)[C@@H]1C(O)=C(C(N)=O)C(=O)[C@@]2(O)C(O)=C3C(=O)c4c(O)cccc4[C@@](C)(O)[C@H]3C[C@@H]12 |  |  | Active
